Data from patent US10632171B2, “Melanocortin receptor-specific peptides” (Palatin Technologies, Inc., priority 2009, dated 2020).
Read-outs that look alike come from different tables or passages of the source. Peptide text beside a SMILES is read from it.

Experiments:
[1] = Food intake and body weight change in rats; format: in vivo, rat; conditions: for food intake / rate of change in body weight: rat feeding study, 0.3 and 1 mg/kg; for decrease in food consumption compared to control: rats
Protocol: Change in food intake and body weight was evaluated for selected peptides administered by intravenous (IV) or subcutaneous injection routes. Male Sprague-Dawley rats were obtained from Hilltop Lab Animals, Inc. (Scottsdale, Pa.) or other vendors. Animals were individually housed in conventional polystyrene hanging cages and maintained on a controlled 12 hour on/off light cycle. Water and pelleted food was provided ad libitum. The rats were dosed IV with vehicle or selected peptides (0.3 to 1.0 mg/kg), or dosed subcutaneously with vehicle or selected peptides (doses up to 30 mg/kg). […] The changes in body weight and food intake for the 48 hour and 72 hour periods after dosing can also be measured to determine reversal of changes in body weight and food intake effects back to baseline levels.

[2] = target: hMC4-R (Homo sapiens (Human), UniProt P32245); assay: Assay for agonist activity (cAMP accumulation in HEK-293 cells); format: cell-based; conditions: for Emax: HEK293; for functional classification at MC4-R: agonist = intrinsic activity 70% or higher, partial agonist 10-70%
Protocol: Accumulation of intracellular cAMP was examined as a measure of the ability of the peptides of the present invention to elicit a functional response in HEK-293 cells that express MC4-R. Confluent HEK-293 cells that express recombinant hMC4-R were detached from culture plates by incubation in enzyme-free cell dissociation buffer. Dispersed cells were suspended in Earle's Balanced Salt Solution containing 10 mM HEPES (pH 7.5), 1 mM MgCl2, 1 mM glutamine, 0.5% albumin and 0.3 mM 3-isobutyl-1-methyl-xanthine (IBMX), a phosphodiesterase inhibitor. […] Cells were exposed for 15 minutes at 37° C. to peptides of the present invention dissolved in DMSO (final DMSO concentration of 1%) at a concentration range of 0.05-5000 nM in a total assay volume of 200 μL. […] Data analysis was performed by nonlinear regression analysis with Graph-Pad Prism® software. The maximum efficacies of the test peptides of the present invention were compared to that achieved by the reference melanocortin agonist NDP-αMSH.

[3] = Induction of penile erection in male rats; format: in vivo, rat
Protocol: The ability of peptides of the present invention to induce penile erection (PE) in male rats were evaluated with selected peptides. Male Sprague-Dawley rats weighing 250-300 g were kept on a 12 hour on/off light cycle with food and water ad libitum. All behavioral studies were performed between 9 a.m. and 4 p.m. […] Rats are observed for one hour, and the number of yawns, grooming bouts and PEs are recorded in 10-minute bins.

[4] = target: hMC1-R (Homo sapiens (Human), UniProt Q01726); assay: Functional assay for agonist activity at hMC1-R; format: cell-based; conditions: intrinsic activity
[5] = 1 mg/kg, 0-2, 0-4 and 0-20 hour periods
[6] = NDP-α-MSH is 100%, read-out: intrinsic activity at MC4-R
[7] = intrinsic activity, read-out: hMC4-R Emax (%)

Chain of hMC1-R (Q01726 whole entry): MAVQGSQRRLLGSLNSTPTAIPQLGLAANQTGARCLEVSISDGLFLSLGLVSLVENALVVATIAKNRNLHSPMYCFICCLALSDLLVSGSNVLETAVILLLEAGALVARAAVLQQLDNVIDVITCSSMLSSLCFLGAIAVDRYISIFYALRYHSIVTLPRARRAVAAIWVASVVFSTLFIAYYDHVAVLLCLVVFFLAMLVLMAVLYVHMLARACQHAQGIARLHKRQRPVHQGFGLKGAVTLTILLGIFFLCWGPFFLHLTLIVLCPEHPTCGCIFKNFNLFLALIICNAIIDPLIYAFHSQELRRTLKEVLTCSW
Chain of hMC4-R (P32245 whole entry): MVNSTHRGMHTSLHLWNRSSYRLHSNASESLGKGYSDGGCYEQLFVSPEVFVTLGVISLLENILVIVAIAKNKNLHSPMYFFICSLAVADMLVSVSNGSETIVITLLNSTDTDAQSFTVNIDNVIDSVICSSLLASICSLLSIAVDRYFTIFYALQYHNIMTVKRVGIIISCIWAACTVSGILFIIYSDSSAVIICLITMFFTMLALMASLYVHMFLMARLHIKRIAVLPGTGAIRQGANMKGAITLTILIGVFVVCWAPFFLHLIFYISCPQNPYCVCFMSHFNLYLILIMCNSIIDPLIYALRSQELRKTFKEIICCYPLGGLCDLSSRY

SMILES | Emax [2, 6] | functional classification at MC4-R [2] | Emax [2, 7] | Emax [4] | also measured
CC(=O)N[C@@H](CCCNC(=N)N)C(=O)N[C@H]1CC(=O)NCCCC[C@@H](C(N)=O)NC(=O)[C@H](Cc2c[nH]c3ccccc23)NC(=O)[C@H](CCCNC(=N)N)NC(=O)[C@@H](Cc2ccccc2)NC(=O)[C@H](Cc2c[nH]cn2)NC1=O [Peptide No. 1, Ac-Arg-cyclo(Asp-His- D-Phe-Arg-Trp-Lys)- NH2] | 91% | agonist | – | – | food intake [1]: reduce food intake; rate of change in body weight [1]: decrease the rate of change in body weight; decrease in food consumption compared to control ([1]; 0.3 mg/kg, 0-2, 0-4 and 0-20 hour periods): statistically significant; decrease in food consumption compared to control [1, 5]: statistically significant; observed spontaneous erections compared to vehicle ([3]; IV, 0.3 or 1 mg/kg): statistically significant increase
CC(=O)N[C@@H](CCCNC(=N)N)C(=O)N[C@H]1CC(=O)NCCCC[C@@H](C(N)=O)NC(=O)[C@H](Cc2c[nH]c3ccccc23)NC(=O)[C@H](CCCNC(=N)N)NC(=O)[C@@H](Cc2ccccc2)NC(=O)[C@H](C(C)C)NC1=O [Peptide No. 16, Ac-Arg-cyclo(Asp-Val- D-Phe-Arg-Trp-Lys)- NH2] | 42% | partial agonist | – | – | food intake [1]: reduce food intake; rate of change in body weight [1]: decrease the rate of change in body weight; decrease in food consumption compared to control ([1]; 0.3 mg/kg, 0-2 and 0-4 hour periods): statistically significant; decrease in food consumption compared to control [1, 5]: statistically significant
CC(=O)N[C@@H](CCCNC(=N)N)C(=O)N[C@H]1CC(=O)NCCCC[C@@H](C(N)=O)NC(=O)[C@H](Cc2c[nH]c3ccccc23)NC(=O)[C@H](CCCNC(=N)N)NC(=O)[C@@H](Cc2ccccc2)NC(=O)[C@H](CCC(N)=O)NC1=O [Peptide No. 32, Ac-Arg-cyclo(Asp-Gln- D-Phe-Arg-Trp-Lys)- NH2] | 98% | agonist | – | – | observed spontaneous erections ([3]; subcutaneous, 1, 3 or 10 mg/kg): increase in observed spontaneous erections
CC(=O)N[C@H](CCCNC(=N)N)C(=O)N[C@H]1CC(=O)NCCCC[C@@H](C(N)=O)NC(=O)[C@H](Cc2c[nH]c3ccccc23)NC(=O)[C@H](CCCNC(=N)N)NC(=O)[C@@H](Cc2ccccc2)NC(=O)[C@H](CCC(N)=O)NC1=O [compound 71, Ac-D-Arg-cyclo(Asp- Gln-D-Phe-Arg-Trp- Lys)-NH2] | – | – | 89% | 88% | –
CC(=O)N[C@@H](CCCNC(=N)N)C(=O)N[C@H]1CCCC(=O)NCC[C@@H](C(N)=O)NC(=O)[C@H](Cc2c[nH]c3ccccc23)NC(=O)[C@H](CCCNC(=N)N)NC(=O)[C@@H](Cc2ccccc2)NC(=O)[C@H](Cc2c[nH]cn2)NC1=O [compound 126, Ac-Arg-cyclo(hGlu-His- D-Phe-Arg-Trp-Dab)- NH2] | 101% | agonist | – | – | –
CC(=O)N[C@@H](CCCNC(=N)N)C(=O)N[C@H]1CCCC(=O)NCC[C@@H](C(N)=O)NC(=O)[C@H](Cc2c[nH]c3ccccc23)NC(=O)[C@H](CCCNC(=N)N)NC(=O)[C@@H](Cc2ccccc2)NC(=O)[C@H](CCN)NC1=O [compound 127, Ac-Arg-cyclo(hGlu-Dab- D-Phe-Arg-Trp-Dab)- NH2] | 98% | agonist | – | – | –
CC(=O)N[C@@H](CCCNC(=N)N)C(=O)N[C@H]1CCNC(=O)CCC[C@@H](C(N)=O)NC(=O)[C@H](Cc2c[nH]c3ccccc23)NC(=O)[C@H](CCCNC(=N)N)NC(=O)[C@@H](Cc2ccccc2)NC(=O)[C@H](Cc2c[nH]cn2)NC1=O [compound 128, Ac-Arg-cyclo(Dab-His- D-Phe-Arg-Trp-hGlu)- NH2] | 95% | agonist | – | – | –
CC(=O)N[C@@H](CCCNC(=N)N)C(=O)N[C@H]1CCNC(=O)CCC[C@@H](C(N)=O)NC(=O)[C@H](Cc2c[nH]c3ccccc23)NC(=O)[C@H](CCCNC(=N)N)NC(=O)[C@@H](Cc2ccccc2)NC(=O)[C@H](CCN)NC1=O [compound 129, Ac-Arg-cyclo(Dab-Dab- D-Phe-Arg-Trp-hGlu)- NH2] | 96% | agonist | – | – | –
CC(=O)N[C@@H](CCCNC(=N)N)C(=O)N[C@H]1CCCNC(=O)CC[C@@H](C(N)=O)NC(=O)[C@H](Cc2c[nH]c3ccccc23)NC(=O)[C@H](CCCNC(=N)N)NC(=O)[C@@H](Cc2ccccc2)NC(=O)[C@H](CCC(N)=O)NC1=O [compound 150, Ac-Arg-cyclo(Orn-Gln- D-Phe-Arg-Trp-Glu)- NH2] | – | – | – | 89% | –
CC(=O)N[C@H](CCCNC(=N)N)C(=O)N[C@H]1CCCNC(=O)CC[C@@H](C(N)=O)NC(=O)[C@H](Cc2c[nH]c3ccccc23)NC(=O)[C@H](CCCNC(=N)N)NC(=O)[C@@H](Cc2ccccc2)NC(=O)[C@H](CCC(N)=O)NC1=O [compound 152, Ac-D-Arg-cyclo(Orn- Gln-D-Phe-Arg-Trp- Glu)-NH2] | – | – | 89% | 85% | –
CC(=O)N[C@@H](CCCNC(=N)N)C(=O)N[C@H]1CCCNC(=O)CC[C@@H](C(N)=O)NC(=O)[C@H](Cc2c[nH]c3ccccc23)NC(=O)[C@H](CCCNC(=N)N)NC(=O)[C@@H](Cc2ccccc2)NC(=O)[C@H](CC(N)=O)NC1=O [compound 154, Ac-Arg-cyclo(Orn-Asn- D-Phe-Arg-Trp-Glu)- NH2] | – | – | – | 87% | –

The next lines start with results.

Emax [2, 6] | functional classification at MC4-R [2] | Emax [2, 7] | Emax [4] | SMILES | also measured
– | – | 97% | 91% | CC(=O)N[C@@H](CCCNC(=N)N)C(=O)N[C@H]1CCCCNC(=O)C[C@@H](C(N)=O)NC(=O)[C@H](Cc2c[nH]c3ccccc23)NC(=O)[C@H](CCCNC(=N)N)NC(=O)[C@@H](Cc2ccccc2)NC(=O)[C@H](CC(N)=O)NC1=O [compound 155, Ac-Arg-cyclo(Lys-Asn- D-Phe-Arg-Trp-Asp)- NH2] (HELM PEPTIDE1{[ac].R.K.N.[dF].R.W.D.[am]}$PEPTIDE1,PEPTIDE1,3:R3-8:R3$$$V2.0) | –
– | – | – | 81% | CC(=O)N[C@H](CCCNC(=N)N)C(=O)N[C@H]1CCCNC(=O)CC[C@@H](C(N)=O)NC(=O)[C@H](Cc2c[nH]c3ccccc23)NC(=O)[C@H](CCCNC(=N)N)NC(=O)[C@@H](Cc2ccccc2)NC(=O)[C@H](CC(N)=O)NC1=O [compound 156, Ac-D-Arg-cyclo(Orn- Asn-D-Phe-Arg-Trp- Glu)-NH2] | –
– | – | 99% | 98% | CC(=O)N[C@@H](CCCNC(=N)N)C(=O)N[C@H]1CCNC(=O)CCC[C@@H](C(N)=O)NC(=O)[C@H](Cc2c[nH]c3ccccc23)NC(=O)[C@H](CCCNC(=N)N)NC(=O)[C@@H](Cc2ccccc2)NC(=O)[C@H](CCC(N)=O)NC1=O [compound 159, Ac-Arg-cyclo(Dab-Gln- D-Phe-Arg-Trp-hGlu)- NH2] | –
– | – | 98% | 95% | CC(=O)N[C@@H](CCCNC(=N)N)C(=O)N[C@H]1CCCC(=O)NCC[C@@H](C(N)=O)NC(=O)[C@H](Cc2c[nH]c3ccccc23)NC(=O)[C@H](CCCNC(=N)N)NC(=O)[C@@H](Cc2ccccc2)NC(=O)[C@H](CC(N)=O)NC1=O [compound 160, Ac-Arg-cyclo(hGlu-Asn- D-Phe-Arg-Trp-Dab)- NH2] (HELM PEPTIDE1{[ac].R.[O=C([C@H](CCCC(=O)[*:3])N[*:1])[*:2]].N.[dF].R.W.[Dab].[am]}$PEPTIDE1,PEPTIDE1,3:R3-8:R3$$$V2.0) | –
– | – | 91% | 85% | CC(=O)N[C@@H](CCCNC(=N)N)C(=O)N[C@H]1CCC(=O)NCCC[C@@H](C(N)=O)NC(=O)[C@H](Cc2c[nH]c3ccccc23)NC(=O)[C@H](CCCNC(=N)N)NC(=O)[C@@H](Cc2ccccc2)NC(=O)[C@H](CC(N)=O)NC1=O [compound 161, Ac-Arg-cyclo/(Glu-Asn- D-Phe-Arg-Trp-Orn)- NH2] | –
– | – | 82% | 89% | CC(=O)N[C@@H](CCCNC(=N)N)C(=O)N[C@H]1CCCCNC(=O)C[C@@H](C(N)=O)NC(=O)[C@H](Cc2ccc3ccccc3c2)NC(=O)[C@H](CCCNC(=N)N)NC(=O)[C@@H](Cc2ccccc2)NC(=O)[C@H](CC(N)=O)NC1=O [compound 162, Ac-Arg-cyclo(Lys-Asn- D-Phe-Arg-Nal 2-Asp)- NH2] (HELM PEPTIDE1{[ac].R.K.N.[dF].R.[O=C([C@H](Cc1ccc2ccccc2c1)N[*:1])[*:2]].D.[am]}$PEPTIDE1,PEPTIDE1,3:R3-8:R3$$$V2.0) | –
